Assay results from patent US9029414B2, “Triterpenoid compounds and methods of use thereof” (Biotechnology Research Corporation, priority 2008, dated 2015).

Experiments:
[1] = biological target: serotonin (5-HT1D subtype) receptor (Homo sapiens, UniProt P28221); assay: Radioligand competition binding assay, 5-HT1D; settings: 10 μM in duplicate, read-out: % inhibition of control specific binding
Method: (§1) DA001 was evaluated against 109 receptor binding assays and 17 enzyme assays, comprising of selective, central and peripheral therapeutically-relevant targets. Radioligand competition assays were conducted whereby DA001 was tested at one concentration (10 μM) in duplicate. […] It could compete with the radioligand [^125I-NDP-alpha-melanocyte-stimulating hormone (α-MSH)] binding for MC1 and MC4 but not MC3 and MC5 nor the related family, the melanin concentrating hormone receptors (MCH1 and MCH2).

kainate receptor = assay: Radioligand competition binding assay, kainate; settings: 10 μM in duplicate
Method: as §1

[2] = tested on: C/EBP-b and c-fos expression in cortical neurons; assay: C/EBP-b and c-fos mRNA (real-time PCR) in cortical neurons; type: cell-based; settings: vs DMSO
Method: FIG. 4. DA001 induces CEBPb mRNA in cortical neurons. Cortical neurons were incubated with DA001 or the DMSO control for 3 different time intervals. Gene expression was normalized against the house-keeping gene, hypoxanthine phosphoribosyltransferase 1 (HPRT1) and glyceraldehyde 3-phosphate dehydrogenase (GAPDH) and compared to the control (DMSO) treatment. Relative change in gene expression induced by DA001 was compared with DMSO. Asterisk represents P<0.05.
Cortical neurons of 11 DIV-12 DIV were pre-incubated with DA001 or DMSO for 24 hours. Cells were washed in Locke's medium without magnesium for 15 min, followed by the treatment of NMDA (20 μM) or water for 20 min. Neurons were incubated with normal growth medium and total RNA were extracted at different time intervals after or without NMDA treatment. Total RNA was extracted using RNeasy Mini kit (Qiagen) according to the manufacturer's protocol, and was reverse-transcribed into single-stranded cDNA with SuperScript II Reverse Transcriptase (Invitrogen) and oligo-dT primers. Real-time Quantitative PCR was performed using Power SYBR Green PCR Master Mix (Applied Biosystems) on the Mx3000P Real-Time PCR System (Stratagene). […]
Cortical neurons were treated with DA001 at different time intervals. The expression of CCAAT/enhancer binding protein beta (C/EBP-b) and c-fos was measured at three different time intervals by real-time PCR. […]

MC2 receptor = biological target: T1, MC2 receptor (Homo sapiens, UniProt Q01718); assay: Cellular receptor functional assay (cAMP), MC2; type: cell-based
T1 construct: expressed in transfected cells
Method: DA001 inhibits ligand binding to MC1 and MC4 receptors. To determine whether the inhibitory effect is due to agonist or antagonist activity, DA001 was evaluated at 6 or 8 concentrations in cellular assays assessing receptor function. Upon ligand binding, the MC1 or MC4 receptor is activated which leads to an increase in intracellular cyclic AMP. […] DA001 alone is unable to induce cAMP increase (blue square dots). […] DA001 was further evaluated with MC2 receptor functional assay. Upon ligand binding, the MC2 receptor is activated which leads to an increase in intracellular cyclic AMP.

BALB/c mice = assay: Murine model of oxazolone-induced ear edema; type: in vivo
Method: This is a contract research performed by Washington Biotechnology Inc., Columbia, Md., protocol 1041. On day 0, 42 BALB/c mice (female, Harlan Sprague-Dawley, 5-6 weeks) were shaved on the ventral surface of the right ear. 100 μl of the 5% oxazolone solution (Sigma) was then applied to the saved ear. The treated mice were then returned to the cage and kept for additional 6 days. On day 7, the mice were weighed and dosed orally with 10 ml/kg water or DA021 at either 30 mg/kg or 100 mg/kg or topically applied on both sides of both ears with 25 μl betamethasone. Thirty minutes after oral dosing, 5 μl of 3% oxazolone was applied to both sides of the right ear and 5 μl of acetone was applied to both sides of the contralateral ear. Twenty-four hours after 3% oxazolone/acetone application, the mice were euthanized, the ears removed and weighed.
To evaluate the efficacy and potency of DA021 in acute inflammation, an oxazolone-induced ear edema model was carried out in mice. Oxazolone-induced ear edema model is a commonly used skin inflammatory animal model. Oxazolone (OA) is an allergen that induces immunological responses that lead to surface edema. […] Betamethasone (BMS) which was used as a positive control, is a corticosteroid that is used as an anti-itching cream and other anti-inflammatory remedies.
Mice were then treated with betamethasone (BMS, mg, topical) or DA021 (mg/kg, p.o.) and the ears were removed and weighed. N=10 per group, significance (p-value) was calculated versus OA+vehicle using the Student's T-test, *=P≦1×10^−7, #=P≦1×10^−12.

T1 sequence (Q01718 whole entry): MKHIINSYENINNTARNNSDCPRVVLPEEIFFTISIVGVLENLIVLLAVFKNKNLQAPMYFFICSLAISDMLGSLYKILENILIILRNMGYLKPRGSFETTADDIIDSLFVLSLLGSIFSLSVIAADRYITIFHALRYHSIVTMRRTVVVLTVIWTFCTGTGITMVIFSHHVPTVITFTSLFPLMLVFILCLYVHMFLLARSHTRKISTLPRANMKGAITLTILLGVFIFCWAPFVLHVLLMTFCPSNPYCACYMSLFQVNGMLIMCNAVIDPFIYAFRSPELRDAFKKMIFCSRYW
T1 sequence (Q8TCY5 whole entry partner): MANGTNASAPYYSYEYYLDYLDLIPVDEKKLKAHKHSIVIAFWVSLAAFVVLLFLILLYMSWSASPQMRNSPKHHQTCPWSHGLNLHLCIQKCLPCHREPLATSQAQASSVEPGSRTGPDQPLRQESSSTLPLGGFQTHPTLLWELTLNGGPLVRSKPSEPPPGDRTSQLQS
Sequence of serotonin (5-HT1D subtype) receptor (P28221 whole entry): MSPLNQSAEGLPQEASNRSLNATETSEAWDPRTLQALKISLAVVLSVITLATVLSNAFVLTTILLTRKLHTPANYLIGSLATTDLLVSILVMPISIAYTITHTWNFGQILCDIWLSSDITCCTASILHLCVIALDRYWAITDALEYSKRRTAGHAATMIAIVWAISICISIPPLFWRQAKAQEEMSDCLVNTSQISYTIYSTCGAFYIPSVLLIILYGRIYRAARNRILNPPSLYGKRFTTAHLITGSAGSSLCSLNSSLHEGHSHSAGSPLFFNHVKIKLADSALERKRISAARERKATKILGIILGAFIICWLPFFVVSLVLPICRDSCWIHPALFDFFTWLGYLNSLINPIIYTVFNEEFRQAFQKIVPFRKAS

C=C(C)[C@@H]1CC[C@]2(C(=O)O)CC[C@]3(C)C(CC[C@@H]4[C@@]5(C)CC[C@H](O[C@@H]6OC[C@H](O)[C@H](O)[C@H]6O[C@@H]6O[C@@H](C)[C@H](O)[C@@H](O)[C@H]6O)[C@@](C)(CO)[C@@H]5CC[C@]43C)[C@@H]12 (stereo partly drawn) [DA001, 3-O-[α-L-rhamnopyranosyl-(1→2)-α-L-arabinopyranosyl]-3,23-dihydroxy-20(29)-lupen-28-oic acid]
inhibition at 10 µM [1]: 30%
% inhibition of control specific binding (kainate receptor): 35%
C/EBP-b expression (mRNA) ([2]; after a 2-day treatment): induced C/EBP-b expression
c-fos expression (mRNA) ([2]; similar conditions): did not affect expression of c-fos
Agonist effect, cAMP measurement (MC2 receptor; absence of ligand ACTH1-39, cells over-expressing MC2): 0
Antagonist effect, cAMP measurement (MC2 receptor; presence of ligand ACTH1-39, cells over-expressing MC2): −8

C=C(C)[C@@H]1CC[C@]2(/C=N/O)CC[C@]3(C)C(CCC4[C@@]5(C)CCC(=O)[C@@](C)(CO)[C@@H]5CC[C@]43C)C12 (stereo partly shown) [DA021]
Change in Ear Weight (mg), Average (BALB/c mice; 30 mg/kg po): 48.3 mg
Change in Ear Weight, % Inhibition (BALB/c mice; 30 mg/kg po): 31.7%
Change in Ear Weight (mg), Average (BALB/c mice; 100 mg/kg po): 33.3 mg
Change in Ear Weight, % Inhibition (BALB/c mice; 100 mg/kg po): 52.9%
